Laboratory results published in US4335244A, “Monolactate salts of 4'-(9-acridinylamino)methanesulfon-m-anisidide” (Bristol-Myers Company, priority 1980, dated 1982).
In brackets after ≈: the same amount, converted by molar mass. Several values for one entry are separate records, joined by “and”; a condition that tells them apart may be missing. Identical values can stand only once. Like-named read-outs stand apart in the source and are kept apart here.

Experiments:
[1] = Reconstitution with (sterile) water; assay type: physicochemical
Protocol: The crystalline m-AMSA monolactate hemiacetonate (10 mg) prepared according to Example 1 was dissolved in 0.5 ml sterile water in an 8.2 ml flint vial. The vial was lyophilized on a laboratory lyophilizer for 16 hours. Sterile water (0.5 ml) was added to the vial. A solution was obtained after two minutes of shaking.
2. For reconstitution, add a sufficient amount of sterile water for
injection to give a 5 mg/ml mAMSA activity solution. The reconstituted

[2] = for Time for which dilute solution remains clear (in words): dilute solutions (e.g. 3-5 mg/ml) of m-AMSA, no precipitation of salt; for Stability (in words): solid form and/or upon reconstitution with water; for Time for which reconstituted solution remained clear: room temperature
Protocol: (§1) (f) Stability: 15 mg salt was reconstituted with 10 ml sterile water.

animal tumor systems = conditions: Cain, et al., Europ. J. Cancer 10:539-549 (1974); cited from earlier work
[3] = cited from earlier work
physchem [4] = conditions: sterile water
Protocol: as §1

physchem [5] = conditions: water
[6] = pH of aqueous solution before lyophilization; assay type: physicochemical; conditions: 180 mg in 24 ml sterile water
Protocol: m-AMSA DL-lactate acetone solvate (180 mg; prepared in Example 6) was dissolved in 24 ml sterile water with stirring. The resulting clear (pH 4.2) solution was passed through a 1 inch 0.45 micron Millipore filter. Two ml of the filtrate was placed in an 8.2 cc flint vial and the solution was lyophilized for 24 hours.

Compound: COc1cc(NS(C)(=O)=O)ccc1Nc1c2ccccc2nc2ccccc12 [Example 2, Lyophilized L(+)-Monolactate Hemiacetonate of m-AMSA]
- Shaking time to obtain a solution on reconstitution of lyophilized product ([1]; 10 mg salt lyophilized, 0.5 ml sterile water): two

Compound: COc1cc(NS(C)(=O)=O)ccc1Nc1c2ccccc2nc2ccccc12 [Example 7]
- Concentration of solution obtained on reconstitution with water [1]: 7500 µg/mL
- Time for which aqueous solution remained clear ([2]; 7.5 mg/ml, 17° C.): at least 6 hours
- Time for which shaken solution was clear ([2]; 7.5 mg/ml, low speed horizontal shaker): up to 5 hours

Compound: COc1cc(NS(C)(=O)=O)ccc1Nc1c2ccccc2nc2ccccc12 [m-AMSA, 4'-(9-acridinylamino)methanesulfon-m-anisidide]
- Incompatibility of solutions with ions ([2]; chloride, sulfate and phosphate ions, insoluble salts form): incompatible with chloride, sulfate and phosphate
- Antitumor activity in animal tumor systems (animal tumor systems): significant antitumor activity in animal tumor systems
- Clinical evaluation result [3]: very promising initial results

Compound: COc1cc(NS(C)(=O)=O)ccc1Nc1c2ccccc2nc2ccccc12 [Example 1, L(+)-Monolactate Hemiacetonate of m-AMSA]
- Time for which reconstituted solution was stable ([2]; 15 mg salt reconstituted with 10 ml sterile water): at least 24 hours
- Time for which dilute solution remains clear (in words) [2]: at least several hours
- Stability (in words) [2]: excellent stability both in solid form and upon reconstitution with water
- degraded at 336 h (physchem [4]): < 6%
- solubility (physchem [5]): 5 mg/mL (≈ 12.7 mM)

Compound: COc1cc(NS(C)(=O)=O)ccc1Nc1c2ccccc2nc2ccccc12 [Example 10, m-AMSA D(-)-Monolactate Hemiacetonate]
- Time for which dilute solution remains clear (in words) [2]: at least several hours
- Stability (in words) [2]: excellent stability both in solid form and upon reconstitution with water

Compound: COc1cc(NS(C)(=O)=O)ccc1Nc1c2ccccc2nc2ccccc12 [Example 11]
- Concentration of solution obtainable on reconstitution with water (m-AMSA activity) ([1]; lyophilized solid, at least 3-5 mg/ml m-AMSA activity, procedure of Example 7 'if repeated'): 3000 to 5000 µg/mL

Compound: COc1cc(NS(C)(=O)=O)ccc1Nc1c2ccccc2nc2ccccc12 [Example 4, m-AMSA Mono DL-Lactate Acetone Solvate]
- Concentration of solution obtained on reconstitution with water [1]: 5000 to 7500 µg/mL
- Concentration of reconstituted aqueous solution readily obtained ([1]; 3 minutes shaking at 75° F.): 5000 µg/mL and 7500 µg/mL and 10000 µg/mL
- Concentration of solution obtained on reconstitution with water ([1]; listed as Example 5): 7500 µg/mL
- pH of solution [6]: 4.2
- Time for which aqueous solution remained clear ([2]; 5 mg/ml, room temperature (17° C.)): at least 16 hours
- Time for which aqueous solution remained clear ([2]; 7.5 mg/ml, 17° C., listed as Example 5): at least 16 hours
- Time for which reconstituted solution remained clear ([2]; 7.5 mg/ml): 24 h
- Time for which reconstituted solution remained clear ([2]; 10 mg/ml): 24 h
- Time for which reconstituted solution remained clear ([2]; 15 mg/ml): 6 h
- Time for which reconstituted solution remains clear ([2]; 5-7.5 mg/ml, 17° C.): at least 6 hours
- Time for which dilute solution remains clear (in words) [2]: at least several hours
- Stability (in words) [2]: excellent stability both in solid form and upon reconstitution with water
- solubility (physchem [5]; room temperature): 25 mg/mL
